biological target: HPK1 (Homo sapiens (Human), UniProt Q92918); assay: HPK1 Lantha binding assay ("Lanth"); conditions: binding assays; Morrison Ki fit
Procedure, shortened: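 TR-FRET binding competition using 2 nM HPK1, 2 nM Eu-anti-GST antibody and 15 nM Tracer222 at 23 °C. Compound was incubated 1 h with enzyme and antibody, then 1 h after tracer addition, with an 11-point 5-fold dilution series. Ki obtained from a Morrison fit that corrects for tracer concentration and Kd.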

Chain of HPK1 (Q92918 1-346 limits assumed): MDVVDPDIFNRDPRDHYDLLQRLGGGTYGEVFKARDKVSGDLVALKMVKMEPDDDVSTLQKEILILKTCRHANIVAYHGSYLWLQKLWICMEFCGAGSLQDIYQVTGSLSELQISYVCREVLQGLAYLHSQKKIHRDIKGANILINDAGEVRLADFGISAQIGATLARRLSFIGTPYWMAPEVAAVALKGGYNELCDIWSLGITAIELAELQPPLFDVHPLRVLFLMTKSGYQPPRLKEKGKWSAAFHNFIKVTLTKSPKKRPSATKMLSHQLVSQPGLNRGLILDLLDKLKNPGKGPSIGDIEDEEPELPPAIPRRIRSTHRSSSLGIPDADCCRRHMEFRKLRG

CC(C)[C@@H]1C[C@]12CNc1ncc(-c3ccc(N)c(C(=O)N(C)C)c3F)cc12 [Compound 234b, 6-Amino-2-fluoro-3-((1S,2S)-2-isopropyl-1′,2′-dihydrospiro[cyclopropane-1,3′-pyrrolo[2,3-b]pyridin]-5′-yl)-N,N-dimethylbenzamide] and CN(C)C(=O)c1c(N)ccc(-c2cnc3c(c2Cl)[C@]2(CC[C@@H](C#N)CC2)CN3)c1F [Compound 241a, 6-Amino-3-((1r,4r)-4′-chloro-4-cyano-1′,2′-dihydrospiro[cyclohexane-1,3′-pyrrolo[2,3-b]pyridin]-5′-yl)-2-fluoro-N,N-dimethylbenzamide] are within 1.5-fold of each other in Ki: 38 nM for the first, 44.8 nM for the second.

First: CN(C)C(=O)c1c(N)ccc(-c2cnc3c(c2Cl)[C@]2(CC[C@@H](C(N)=O)CC2)CN3)c1F [Compound 235a, (1r,4r)-5′-(4-Amino-3-(dimethylcarbamoyl)-2-fluorophenyl)-4′-chloro-1′,2′-dihydrospiro[cyclohexane-1,3′-pyrrolo[2,3-b]pyridine]-4-carboxamide]
Second: CN(C)C(=O)c1c(N)ccc(-c2cnc3c(c2Cl)[C@]2(CC[C@H](C(N)=O)CC2)CN3)c1F [Compound 235b, (1s,4s)-5′-(4-Amino-3-(dimethylcarbamoyl)-2-fluorophenyl)-4′-chloro-1′,2′-dihydrospiro[cyclohexane-1,3′-pyrrolo[2,3-b]pyridine]-4-carboxamide]
The Ki of the first is 3.9-fold higher: 46.7 nM for the first, 11.9 nM for the second.

Going from NC(=O)C1(c2cccc(-c3cnc4c(c3Cl)C3(CC=CC3)CN4)c2)CC1 [Compound 236, 1-(3-(4′-Chloro-1′,2′-dihydrospiro[cyclopentane-1,3′-pyrrolo[2,3-b]pyridin]-3-en-5′-yl)phenyl)cyclopropane-1-carboxamide] to CN(C)C(=O)C1(c2cccc(-c3cnc4c(c3Cl)C3(CC=CC3)CN4)c2)CC1 [Compound 263, 1-(3-(4′-Chloro-1′,2′-dihydrospiro[cyclopentane-1,3′-pyrrolo[2,3-b]pyridin]-3-en-5′-yl)phenyl)-N,N-dimethylcyclopropane-1-carboxamide], the Ki rises from 33.2 nM to 283 nM (8.5-fold). The first binds more tightly here.

First: Clc1c(-c2ccc(Oc3ncccn3)cc2)cnc2c1C1(CC=CC1)CN2 [Compound 237, 4′-Chloro-5′-(4-(pyrimidin-2-yloxy)phenyl)-1′,2′-dihydrospiro[cyclopentane-1,3′-pyrrolo[2,3-b]pyridin]-3-ene]
Second: Cc1c(CC#N)ccnc1-c1cccc(-c2cnc3c(c2Cl)C2(CC=CC2)CN3)c1 [Compound 249, 2-(2-(3-(4′-Chloro-1′,2′-dihydrospiro[cyclopentane-1,3′-pyrrolo[2,3-b]pyridin]-3-en-5′-yl)phenyl)-3-methylpyridin-4-yl)acetonitrile]
The Ki of the first is 66-fold higher: 283 nM for the first, 4.3 nM for the second.

Going from Cc1cc(C)n(-c2cccc(-c3cnc4c(c3Cl)C3(CC=CC3)CN4)c2)n1 [Compound 238, 4′-Chloro-5′-(3-(3,5-dimethyl-1H-pyrazol-1-yl)phenyl)-1′,2′-dihydrospiro[cyclopentane-1,3′-pyrrolo[2,3-b]pyridin]-3-ene] to Cc1cc(CC#N)nn1-c1cccc(-c2cnc3c(c2Cl)C2(CC=CC2)CN3)c1 [Compound 257, 2-(1-(3-(4′-Chloro-1′,2′-dihydrospiro[cyclopentane-1,3′-pyrrolo[2,3-b]pyridin]-3-en-5′-yl)phenyl)-5-methyl-1H-pyrazol-3-yl)acetonitrile], the Ki rises from 22.9 nM to 53.2 nM (2.3-fold).

First: CN(C)C(=O)c1c(N)ccc(-c2cnc3c(c2Cl)[C@]2(CC[C@H](C#N)CC2)CN3)c1F [Compound 241b, 6-Amino-3-((1s,4s)-4′-chloro-4-cyano-1′,2′-dihydrospiro[cyclohexane-1,3′-pyrrolo[2,3-b]pyridin]-5′-yl)-2-fluoro-N,N-dimethylbenzamide]
Second: CN(C)C(=O)c1c(N)ccc(-c2cnc3c(c2Cl)[C@]2(CC[C@@H](CN)CC2)CN3)c1F [Compound 258a, 6-Amino-3-((1r,4r)-4-(aminomethyl)-4′-chloro-1′,2′-dihydrospiro[cyclohexane-1,3′-pyrrolo[2,3-b]pyridin]-5′-yl)-2-fluoro-N,N-dimethylbenzamide]
The Ki of the first is 15-fold lower: 12.5 nM for the first, 190 nM for the second.

First: Cc1c(CC#N)ccnc1-c1cccc(-c2cnc3c(c2)C2(CC2)CN3)c1 [Compound 242, 2-(2-(3-(1′,2′-Dihydrospiro[cyclopropane-1,3′-pyrrolo[2,3-b]pyridin]-5′-yl)phenyl)-3-methylpyridin-4-yl)acetonitrile]
Second: Cc1c(CC#N)ccnc1-c1cccc(-c2cnc3c(c2)C2(CC2)CN3)c1F [Compound 251, 2-(2-(3-(1′,2′-Dihydrospiro[cyclopropane-1,3′-pyrrolo[2,3-b]pyridin]-5′-yl)-2-fluorophenyl)-3-methylpyridin-4-yl)acetonitrile]
The Ki of the first is 3.7-fold higher: 11.7 nM for the first, 3.15 nM for the second.

Compared with N#CC1CCCCN1C(=O)c1cccc(-c2cnc3c(c2)C2(CC2)CN3)c1F (centres unmarked) [Compound 244, 1-(3-(1′,2′-Dihydrospiro[cyclopropane-1,3′-pyrrolo[2,3-b]pyridin]-5′-yl)-2-fluorobenzoyl)piperidine-2-carbonitrile], Cn1cc(C2CCCCN2C(=O)c2cccc(-c3cnc4c(c3)[C@]3(CC[C@H](O)CC3)CN4)c2F)cn1 (stereo partly drawn) [Compound 245a, (2-Fluoro-3-((1s,4s)-4-hydroxy-1′,2′-dihydrospiro[cyclohexane-1,3′-pyrrolo[2,3-b]pyridin]-5′-yl)phenyl)((R)-2-(1-methyl-1H-pyrazol-4-yl)piperidin-1-yl)methanone] is 5.1-fold higher in Ki: 8.25 nM for the first, 42 nM for the second.

Going from CC(C)(C)c1nnc(-c2cccc(-c3cnc4c(c3Cl)C3(CC=CC3)CN4)c2)o1 [Compound 247, 2-(tert-Butyl)-5-(3-(4′-chloro-1′,2′-dihydrospiro[cyclopentane-1,3′-pyrrolo[2,3-b]pyridin]-3-en-5′-yl)phenyl)-1,3,4-oxadiazole] to Cc1c(CC#N)ccnc1-c1cccc(-c2cnc3c(c2Cl)C2(CC=CC2)CN3)c1F [Compound 252, 2-(2-(3-(4′-Chloro-1′,2′-dihydrospiro[cyclopentane-1,3′-pyrrolo[2,3-b]pyridin]-3-en-5′-yl)-2-fluorophenyl)-3-methylpyridin-4-yl)acetonitrile], the Ki falls from 253 nM to 5.94 nM (43-fold).

CN(C)C(=O)c1c(N)ccc(-c2cnc3c(c2Cl)[C@]2(CC[C@H](CO)CC2)CN3)c1F [Compound 248a, 6-Amino-3-((1s,4s)-4′-chloro-4-(hydroxymethyl)-1′,2′-dihydrospiro[cyclohexane-1,3′-pyrrolo[2,3-b]pyridin]-5′-yl)-2-fluoro-N,N-dimethylbenzamide] and CN(C)C(=O)c1c(N)ccc(-c2cnc3c(c2Cl)[C@]2(CC[C@@H](CO)CC2)CN3)c1F [Compound 248b, 6-Amino-3-((1r,4r)-4′-chloro-4-(hydroxymethyl)-1′,2′-dihydrospiro[cyclohexane-1,3′-pyrrolo[2,3-b]pyridin]-5′-yl)-2-fluoro-N,N-dimethylbenzamide] are within 1.5-fold of each other in Ki: 6.01 nM for the first, 4.89 nM for the second.

First: CN(C)C(=O)c1c(N)ccc(-c2cnc3c(c2Cl)[C@]2(CC[C@@](C)(C#N)CC2)CN3)c1F [Compound 250b, 6-Amino-3-((1r,4r)-4′-chloro-4-cyano-4-methyl-1′,2′-dihydrospiro[cyclohexane-1,3′-pyrrolo[2,3-b]pyridin]-5′-yl)-2-fluoro-N,N-dimethylbenzamide]
Second: CN(C)C(=O)c1c(N)ccc(-c2cnc3c(c2Cl)[C@]2(CC[C@@](C)(CO)CC2)CN3)c1F [Compound 256a, 6-Amino-3-((1r,4r)-4′-chloro-4-(hydroxymethyl)-4-methyl-1′,2′-dihydrospiro[cyclohexane-1,3′-pyrrolo[2,3-b]pyridin]-5′-yl)-2-fluoro-N,N-dimethylbenzamide]
The Ki of the first is 3.7-fold higher: 41.3 nM for the first, 11.1 nM for the second. The second binds more tightly here.

Compared with CN(C)C(=O)c1c(N)ccc(-c2cnc3c(c2Cl)[C@]2(CC[C@H](C(C)(C)O)CC2)CN3)c1F [Compound 255a, 6-Amino-3-((1s,4s)-4′-chloro-4-(2-hydroxypropan-2-yl)-1′,2′-dihydrospiro[cyclohexane-1,3′-pyrrolo[2,3-b]pyridin]-5′-yl)-2-fluoro-N,N-dimethylbenzamide], CN(C)C(=O)c1c(N)ccc(-c2cnc3c(c2Cl)[C@]2(CC[C@@H](C(C)(C)O)CC2)CN3)c1F [Compound 255b, 6-Amino-3-((1r,4r)-4′-chloro-4-(2-hydroxypropan-2-yl)-1′,2′-dihydrospiro[cyclohexane-1,3′-pyrrolo[2,3-b]pyridin]-5′-yl)-2-fluoro-N,N-dimethylbenzamide] is 1.7-fold lower in Ki: 19.9 nM for the first, 12 nM for the second.

CN(C)C(=O)c1c(N)ccc(-c2cnc3c(c2Cl)[C@]2(CC[C@H](CN)CC2)CN3)c1F [Compound 258b, 6-Amino-3-((1s,4s)-4-(aminomethyl)-4′-chloro-1′,2′-dihydrospiro[cyclohexane-1,3′-pyrrolo[2,3-b]pyridin]-5′-yl)-2-fluoro-N,N-dimethylbenzamide] and NC(=O)C1(c2cccc(-c3cnc4c(c3Cl)C3(CC=CC3)CN4)c2F)CC1 [Compound 265, 1-(3-(4′-Chloro-1′,2′-dihydrospiro[cyclopentane-1,3′-pyrrolo[2,3-b]pyridin]-3-en-5′-yl)-2-fluorophenyl)cyclopropane-1-carboxamide] are within 1.5-fold of each other in Ki: 150 nM for the first, 108 nM for the second.

First: CN(Cc1cnn(C2CCNC2)c1)C(=O)c1cccc(-c2cnc3c(c2Cl)C2(CC=CC2)CN3)c1F (centres unmarked) [Compound 260, 3-(4′-Chloro-1′,2′-dihydrospiro[cyclopentane-1,3′-pyrrolo[2,3-b]pyridin]-3-en-5′-yl)-2-fluoro-N-methyl-N-((1-(pyrrolidin-3-yl)-1H-pyrazol-4-yl)methyl)benzamide]
Second: CN(Cc1cnn(CCO)c1)C(=O)c1cccc(-c2cnc3c(c2Cl)C2(CC=CC2)CN3)c1F [Compound 262, 3-(4′-Chloro-1′,2′-dihydrospiro[cyclopentane-1,3′-pyrrolo[2,3-b]pyridin]-3-en-5′-yl)-2-fluoro-N-((1-(2-hydroxyethyl)-1H-pyrazol-4-yl)methyl)-N-methylbenzamide]
The Ki of the first is 3.2-fold higher: 38 nM for the first, 12 nM for the second. The second binds more tightly here.

O=C(N1CCOCC1)C1(c2cccc(-c3cnc4c(c3Cl)C3(CC=CC3)CN4)c2)CC1 [Compound 268, (1-(3-(4′-Chloro-1′,2′-dihydrospiro[cyclopentane-1,3′-pyrrolo[2,3-b]pyridin]-3-en-5′-yl)phenyl)cyclopropyl)(morpholino)methanone] was tested, and the Ki was 484 nM.

From patent US12208088B2 (Genentech, Inc., priority 2018, dated 2025)
